From ChEMBL document CHEMBL4619828, “Discovery of Potent and Orally Bioavailable Small Molecule Antagonists of Toll-like Receptors 7/8/9 (TLR7/8/9)” (ACS Med Chem Lett, 2020)

Assays:
Format in all cases: cell-based
Toll-like receptor 9 = molecular target: T1, Toll-like receptor 9 (Homo sapiens, UniProt Q9NR96); assay: Antagonist activity at human TLR9 overexpressed in HEK-Blue cells assessed as inhibition of ODN2006-induced NFkappaB and AP-1 activation preincubated for 30 mins followed by ODN2006 stimulation measured after 22 hrs by quanti-blue SEAP assay
T1 sequence (Q9NR96 whole entry): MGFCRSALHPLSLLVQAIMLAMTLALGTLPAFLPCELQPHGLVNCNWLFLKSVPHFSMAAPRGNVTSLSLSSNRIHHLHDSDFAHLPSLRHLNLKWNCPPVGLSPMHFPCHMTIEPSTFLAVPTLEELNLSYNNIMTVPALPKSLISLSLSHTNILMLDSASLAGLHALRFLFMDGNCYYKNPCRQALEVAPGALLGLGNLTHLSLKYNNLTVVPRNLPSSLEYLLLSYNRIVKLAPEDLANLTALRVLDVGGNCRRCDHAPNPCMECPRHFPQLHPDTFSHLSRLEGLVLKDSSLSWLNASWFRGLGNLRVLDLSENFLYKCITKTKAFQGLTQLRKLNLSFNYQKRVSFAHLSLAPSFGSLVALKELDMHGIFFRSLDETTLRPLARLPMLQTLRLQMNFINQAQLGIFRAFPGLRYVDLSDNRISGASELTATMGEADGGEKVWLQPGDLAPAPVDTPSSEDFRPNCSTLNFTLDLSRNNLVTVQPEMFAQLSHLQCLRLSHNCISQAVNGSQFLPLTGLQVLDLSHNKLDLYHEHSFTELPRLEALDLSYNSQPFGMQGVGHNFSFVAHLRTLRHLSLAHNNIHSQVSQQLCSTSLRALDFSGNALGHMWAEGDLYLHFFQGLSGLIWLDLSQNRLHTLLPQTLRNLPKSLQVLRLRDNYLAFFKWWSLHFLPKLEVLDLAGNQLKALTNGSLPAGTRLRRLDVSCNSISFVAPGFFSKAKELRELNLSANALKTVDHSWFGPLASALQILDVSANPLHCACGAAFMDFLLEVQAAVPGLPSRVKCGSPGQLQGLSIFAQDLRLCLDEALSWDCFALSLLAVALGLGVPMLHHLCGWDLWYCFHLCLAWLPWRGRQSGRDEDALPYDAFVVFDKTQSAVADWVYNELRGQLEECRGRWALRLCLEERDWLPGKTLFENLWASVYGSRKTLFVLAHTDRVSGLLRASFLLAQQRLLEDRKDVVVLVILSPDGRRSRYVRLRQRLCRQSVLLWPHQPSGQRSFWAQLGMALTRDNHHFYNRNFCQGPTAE

Toll-like receptor 7 = molecular target: T2, Toll-like receptor 7 (Homo sapiens, UniProt Q9NYK1); assay: Antagonist activity at human TLR7 overexpressed in HEK-Blue cells assessed as inhibition of gardiquimod-induced NFkappaB and AP-1 activation preincubated for 30 mins followed by gardiquimod stimulation measured after 22 hrs by quanti-blue SEAP assay
T2 sequence (Q9NYK1 whole entry): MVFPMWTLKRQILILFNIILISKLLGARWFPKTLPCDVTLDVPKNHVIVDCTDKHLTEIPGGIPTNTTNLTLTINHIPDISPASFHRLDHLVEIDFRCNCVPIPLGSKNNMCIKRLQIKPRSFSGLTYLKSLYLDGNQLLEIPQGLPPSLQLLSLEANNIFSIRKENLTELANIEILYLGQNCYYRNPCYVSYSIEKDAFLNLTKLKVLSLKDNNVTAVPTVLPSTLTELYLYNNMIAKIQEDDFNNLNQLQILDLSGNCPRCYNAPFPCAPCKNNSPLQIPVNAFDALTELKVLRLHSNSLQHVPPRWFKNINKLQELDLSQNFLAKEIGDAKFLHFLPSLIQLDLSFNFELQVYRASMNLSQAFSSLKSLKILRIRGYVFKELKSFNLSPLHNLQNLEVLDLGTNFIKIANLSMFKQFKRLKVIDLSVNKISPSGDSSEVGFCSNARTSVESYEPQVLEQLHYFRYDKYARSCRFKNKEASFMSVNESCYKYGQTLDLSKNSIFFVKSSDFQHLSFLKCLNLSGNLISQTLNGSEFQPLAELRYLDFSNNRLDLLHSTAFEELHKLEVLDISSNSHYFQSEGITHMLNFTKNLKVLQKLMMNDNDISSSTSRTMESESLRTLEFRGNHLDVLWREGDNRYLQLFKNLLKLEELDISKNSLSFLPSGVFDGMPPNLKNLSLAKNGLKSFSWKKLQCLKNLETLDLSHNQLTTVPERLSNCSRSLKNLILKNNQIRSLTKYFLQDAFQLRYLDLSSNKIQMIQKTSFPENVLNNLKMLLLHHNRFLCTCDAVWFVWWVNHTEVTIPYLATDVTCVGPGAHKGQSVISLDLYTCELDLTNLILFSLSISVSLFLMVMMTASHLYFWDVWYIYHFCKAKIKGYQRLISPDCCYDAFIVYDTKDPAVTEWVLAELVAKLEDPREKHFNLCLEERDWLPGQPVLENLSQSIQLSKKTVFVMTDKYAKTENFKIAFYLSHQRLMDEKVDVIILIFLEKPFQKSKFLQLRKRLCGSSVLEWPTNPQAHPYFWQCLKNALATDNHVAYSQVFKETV

Toll-like receptor 3 = molecular target: T3, Toll-like receptor 3 (Homo sapiens, UniProt O15455); assay: Antagonist activity at human TLR3 overexpressed in HEK-Blue cells assessed as inhibition of Poly IC-induced NFkappaB and AP-1 activation preincubated for 30 mins followed by Poly IC stimulation measured after 22 hrs by quanti-blue SEAP assay
T3 sequence (O15455 whole entry): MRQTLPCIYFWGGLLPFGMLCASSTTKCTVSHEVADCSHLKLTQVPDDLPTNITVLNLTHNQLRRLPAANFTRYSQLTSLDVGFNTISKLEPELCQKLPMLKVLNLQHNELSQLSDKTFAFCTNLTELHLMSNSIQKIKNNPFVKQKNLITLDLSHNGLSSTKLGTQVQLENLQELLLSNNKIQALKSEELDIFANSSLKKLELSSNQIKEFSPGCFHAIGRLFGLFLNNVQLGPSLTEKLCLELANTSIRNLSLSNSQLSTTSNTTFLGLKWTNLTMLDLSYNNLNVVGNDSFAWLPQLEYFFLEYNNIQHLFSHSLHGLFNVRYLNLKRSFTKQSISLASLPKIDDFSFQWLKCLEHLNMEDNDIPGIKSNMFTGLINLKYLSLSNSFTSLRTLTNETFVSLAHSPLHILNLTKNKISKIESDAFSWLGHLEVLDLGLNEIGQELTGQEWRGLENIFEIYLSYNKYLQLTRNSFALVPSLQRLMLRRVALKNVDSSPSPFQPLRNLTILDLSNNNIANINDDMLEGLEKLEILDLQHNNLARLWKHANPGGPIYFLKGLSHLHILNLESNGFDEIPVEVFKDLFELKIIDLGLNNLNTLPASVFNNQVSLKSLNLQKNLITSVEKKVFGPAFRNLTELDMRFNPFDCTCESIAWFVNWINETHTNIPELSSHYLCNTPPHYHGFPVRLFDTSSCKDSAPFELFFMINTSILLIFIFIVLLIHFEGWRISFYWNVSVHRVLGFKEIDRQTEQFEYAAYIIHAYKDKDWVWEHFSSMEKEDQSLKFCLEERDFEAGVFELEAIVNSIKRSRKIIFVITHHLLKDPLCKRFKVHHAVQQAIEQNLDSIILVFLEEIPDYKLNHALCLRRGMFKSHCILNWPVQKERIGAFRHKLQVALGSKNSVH

Toll-like receptor 4 = Toll-like receptor 4 (Homo sapiens, UniProt O00206); assay: Antagonist activity at human TLR4 overexpressed in HEK-Blue cells assessed as inhibition of […] induced NFkappaB and AP-1 activation preincubated for 30 mins followed by […] stimulation measured after 22 hrs by quanti-blue SEAP assay
Toll-like receptor 4, sequence (O00206 whole entry): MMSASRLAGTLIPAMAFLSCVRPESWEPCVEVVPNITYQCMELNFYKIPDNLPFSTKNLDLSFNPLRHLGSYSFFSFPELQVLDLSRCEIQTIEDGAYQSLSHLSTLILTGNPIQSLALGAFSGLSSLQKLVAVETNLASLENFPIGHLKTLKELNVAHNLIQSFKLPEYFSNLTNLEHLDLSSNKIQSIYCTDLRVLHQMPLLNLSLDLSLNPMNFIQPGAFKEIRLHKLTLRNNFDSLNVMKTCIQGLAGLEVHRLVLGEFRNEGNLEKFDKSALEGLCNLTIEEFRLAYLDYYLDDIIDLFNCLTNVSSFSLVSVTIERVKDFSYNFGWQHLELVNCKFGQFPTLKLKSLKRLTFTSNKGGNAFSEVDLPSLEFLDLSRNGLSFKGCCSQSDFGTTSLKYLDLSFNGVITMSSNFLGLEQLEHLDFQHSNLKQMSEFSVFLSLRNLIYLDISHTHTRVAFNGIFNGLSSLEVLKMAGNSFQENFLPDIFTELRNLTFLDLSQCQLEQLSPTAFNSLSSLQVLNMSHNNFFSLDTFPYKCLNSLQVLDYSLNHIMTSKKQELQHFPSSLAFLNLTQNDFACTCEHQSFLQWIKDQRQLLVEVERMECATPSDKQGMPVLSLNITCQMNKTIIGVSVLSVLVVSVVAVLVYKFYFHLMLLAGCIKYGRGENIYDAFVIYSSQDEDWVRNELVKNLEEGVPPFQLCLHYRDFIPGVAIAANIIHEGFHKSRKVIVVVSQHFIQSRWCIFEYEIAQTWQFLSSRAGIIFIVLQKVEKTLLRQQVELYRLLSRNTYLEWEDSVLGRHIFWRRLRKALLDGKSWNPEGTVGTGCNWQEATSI

[1] = molecular target: T4, Toll-like receptor 9 (Homo sapiens) (UniProt Q9NR96); assay: Antagonist activity at human TLR9 overexpressed in HEK-Blue cells assessed as inhibition of ODN2006-induced NFkappaB and AP-1 activation at 10 uM preincubated for 30 mins followed by ODN2006 stimulation measured after 22 hrs by quanti-blue SEAP assay relative to control
T4 sequence (whole entry): T1 sequence (Q9NR96 whole entry)

IC50 (Toll-like receptor 9)	IC50 (Toll-like receptor 7)	SMILES	further results
2.34 µM		COc1ccc(-c2[nH]c3ccc(C4CCN(C5CNC5)CC4)cc3c2C)cc1OC	
1.8 µM	> 10 µM	CNCCN1CCC(c2ccc3[nH]c(-c4ccccc4)c(C)c3c2)CC1	
0.74 µM	0.85 µM	COc1ccc(-c2[nH]c3ccc(C4CCN(CC5CCCCN5C)CC4)cc3c2C)cc1OC (stereo not given)	
4.85 µM		COc1ccc(-c2[nH]c3ccc(C4CCNCC4)cc3c2C)cc1OC	
> 50 µM	1.31 µM	COc1ccc(-c2[nH]c3ccc(C4CCN(C(C)=O)CC4)cc3c2C)cc1OC	
3.36 µM		COc1ccc(-c2[nH]c3ccc(C4CCN(Cc5ccncc5)CC4)cc3c2C)cc1OC	
1.1 µM	> 10 µM	CNCCN1CCC(c2ccc3[nH]c(-c4ccccc4OC)c(C)c3c2)CC1	
1.66 µM		CCOc1cc(-c2[nH]c3ccc(C4CCN(CCNC)CC4)cc3c2C)ccc1OC(C)C	
	3.49 µM	COc1ccc(-c2[nH]c3ccc(C4CCN(Cc5cnc(C)[nH]5)CC4)cc3c2C)cc1OC	
0.85 µM		COc1ccc(-c2[nH]c3ccc(C4CCN(Cc5nccn5C)CC4)cc3c2C)cc1OC	
	> 10 µM	CNCCN1CCC(c2ccc3[nH]c(-c4ccc(OC)c(OC)c4)c(C#N)c3c2)CC1	
2.14 µM	> 10 µM	CNCCN1CCC(c2ccc3[nH]c(-c4ccccc4C)c(C)c3c2)CC1	
0.43 µM	0.25 µM	CNCCN1CCC(c2ccc3[nH]c(-c4ccc(OC)c(OC)c4)c(C)c3c2)CC1	IC50 (Toll-like receptor 3): 2.16 µM; IC50 (Toll-like receptor 4): 15 µM
0.55 µM	0.79 µM	CNCCCN1CCC(c2ccc3[nH]c(-c4ccc(OC)c(OC)c4)c(C)c3c2)CC1	
21.7 µM		CNCCN1CCC(c2ccc3[nH]c(-c4ccccc4Cl)c(F)c3c2)CC1	
0.5 µM	5.46 µM	CNCCN1CCC(c2ccc3[nH]c(-c4ccc(OC)cc4)c(C)c3c2)CC1	

IC50 (Toll-like receptor 9)	IC50 (Toll-like receptor 7)	SMILES	further results
0.27 µM	16.6 µM	CNCCN1CCC(c2ccc3[nH]c(-c4ccc(C(N)=O)cc4)c(C)c3c2)CC1	
23.3 µM	0.61 µM	CNCCN1CCC(c2ccc3[nH]c(-c4ccccc4OC)c(F)c3c2)CC1	inhibition [1]: < 5%
0.6 µM	> 10 µM	CNCCN1CCC(c2ccc3[nH]c(-c4ccccc4C#N)c(C)c3c2)CC1	
1.2 µM	0.65 µM	CNCCN1CCC(c2ccc3[nH]c(-c4ccc5c(c4)OCO5)c(C)c3c2)CC1	
0.46 µM	> 10 µM	CNCCN1CCC(c2ccc3[nH]c(-c4cccc(C#N)c4)c(C)c3c2)CC1	
2.2 µM	> 10 µM	CNCCN1CCC(c2ccc3[nH]c(-c4cccc(OC)c4OC)c(C)c3c2)CC1	
2.71 µM	0.92 µM	COc1ccc(-c2[nH]c3ccc(C4CCN(Cc5cncn5C)CC4)cc3c2C)cc1OC	
1.87 µM	6.17 µM	CNCCN1CCC(c2ccc3[nH]c(-c4cccc(OC)c4)c(C)c3c2)CC1	
5.39 µM	> 10 µM	CNCCN1CCC(c2ccc3[nH]c(-c4ccc(C)cc4)c(C)c3c2)CC1	
2.62 µM	> 10 µM	CNCCN1CCC(c2ccc3[nH]c(-c4cccc(C)c4)c(C)c3c2)CC1	
0.43 µM		CNCCN1CCC(c2ccc3[nH]c(-c4ccc(OC)c(OC)c4)c(Cl)c3c2)CC1	
	0.73 µM	COc1ccc(-c2[nH]c3ccc(C4CCN(C5CCN(C)CC5)CC4)cc3c2C)cc1OC	
	0.13 µM	CCc1c(-c2ccc(OC)c(OC)c2)[nH]c2ccc(C3CCN(CCNC)CC3)cc12	
2.33 µM	> 10 µM	CNCCN1CCC(c2ccc3[nH]c(-c4ccc(OC)cc4OC)c(C)c3c2)CC1	
0.75 µM	0.07 µM	CNCCN1CCC(c2ccc3[nH]c(-c4ccc(OC)c(OC)c4)c(CC(F)(F)F)c3c2)CC1	
0.52 µM		CNCCN1CCC(c2ccc3[nH]c(-c4ccc(C#N)cc4)c(C)c3c2)CC1	
